From ChEMBL document CHEMBL1201862, “PubChem BioAssay data set” (2004)
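The compound was tested at five concentrations on cells cultured in 96-well plates, with a 48-hour exposure period. GI50 = concentration required for 50% inhibition of growth.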 Activity calls are given as the source filed them. Rule as the data show it: active = GI50 up to about 1.1 µM and inactive = higher.

Legend:
Assay in all cases: growth of human tumour cells (NCI), 48 h
786-0 = system: 786-0
A498 = system: A498
A549 = system: A549
ACHN = system: ACHN
BT-549 = system: BT-549
CAKI-1 = system: CAKI-1
CCRF-CEM = system: CCRF-CEM
COLO 205 = system: COLO 205
DU-145 = system: DU-145
EKVX = system: EKVX
HCT-116 = system: HCT-116
HCT-15 = system: HCT-15
HL-60 = system: HL-60
HOP-62 = system: HOP-62
HOP-92 = system: HOP-92
HT-29 = system: HT-29
Hs-578T = system: Hs-578T
IGROV-1 = system: IGROV-1
K562 = system: K562
KM12 = system: KM12
LOX IMVI = system: LOX IMVI
M14 = system: M14
MCF7 = system: MCF7
MDA-MB-435 = system: MDA-MB-435
MDA-N = system: MDA-N
MOLT-4 = system: MOLT-4
Malme-3M = system: Malme-3M
NCI-H226 = system: NCI-H226
NCI-H23 = system: NCI-H23
NCI-H460 = system: NCI-H460
NCI-H522 = system: NCI-H522
NCI/ADR-RES = system: NCI/ADR-RES
OVCAR-3 = system: OVCAR-3
OVCAR-4 = system: OVCAR-4
OVCAR-5 = system: OVCAR-5
OVCAR-8 = system: OVCAR-8
PC-3 = system: PC-3
RPMI-8226 = system: RPMI-8226
RXF 393 = system: RXF 393
SF-268 = system: SF-268
SF-295 = system: SF-295
SF-539 = system: SF-539
SK-MEL-2 = system: SK-MEL-2
SK-MEL-5 = system: SK-MEL-5
SK-OV-3 = system: SK-OV-3
SN12C = system: SN12C
SNB-19 = system: SNB-19
SNB-75 = system: SNB-75
SR = system: SR
SW-620 = system: SW-620
T47D = system: T47D
TK-10 = system: TK-10
U-251 = system: U-251
UACC-257 = system: UACC-257
UACC-62 = system: UACC-62
UO-31 = system: UO-31
HCC 2998 = system: HCC 2998
MDA-MB-231 = system: MDA-MB-231
SK-MEL-28 = system: SK-MEL-28

Measured: GI50

Cc1ccc(C2(N3CCCC3)OC(C)(C)c3cccc4cccc2c34)cc1 (centres undefined)
inactive: 786-0 18.7 µM | A498 16.2 µM | A549 11 µM | ACHN 15.8 µM | BT-549 15.7 µM | CAKI-1 15.7 µM | CCRF-CEM 41.1 µM | COLO 205 15.6 µM | DU-145 16.9 µM | EKVX 11.4 µM | HCT-116 15.6 µM | HL-60 30.8 µM | HOP-62 16 µM | HOP-92 1.48 µM | HT-29 13.4 µM | Hs-578T 15.6 µM | IGROV-1 15.9 µM | K562 22.3 µM | KM12 27.9 µM | LOX IMVI 15.7 µM | M14 17.4 µM | MCF7 17.1 µM | MDA-MB-435 14.8 µM | MDA-N 16.2 µM | MOLT-4 20.7 µM | Malme-3M 18.1 µM | NCI-H226 15.3 µM | NCI-H23 16.2 µM | NCI-H460 13.5 µM | NCI-H522 12.9 µM | NCI/ADR-RES 15 µM | OVCAR-3 14.9 µM | OVCAR-4 14.5 µM | OVCAR-5 15.8 µM | OVCAR-8 15.2 µM | PC-3 15.4 µM | RPMI-8226 22.3 µM | RXF 393 13.5 µM | SF-268 12.9 µM | SF-295 14.5 µM | SF-539 16.9 µM | SK-MEL-2 14.7 µM | SK-MEL-5 15 µM | SK-OV-3 15.6 µM | SN12C 17.5 µM | SNB-19 16.3 µM | SNB-75 13.5 µM | SR 23.2 µM | SW-620 16 µM | T47D 16.3 µM | TK-10 16.8 µM | U-251 16 µM | UACC-257 16.9 µM | UACC-62 13.7 µM | UO-31 15.1 µM
15.6 µM: HCT-15

CCOc1ccc(/N=C/C=C(\Cl)c2ccc3ccccc3c2)cc1
inactive: 786-0 12.8 µM | A498 > 58.3 µM | A549 29.8 µM | ACHN 17.7 µM | BT-549 20.2 µM | CAKI-1 18.8 µM | CCRF-CEM 3.56 µM | COLO 205 16.7 µM | DU-145 16.7 µM | EKVX 27.2 µM | HCT-116 9.14 µM | HL-60 8.59 µM | HOP-62 15.3 µM | HOP-92 15.3 µM | HT-29 11.5 µM | Hs-578T 29.8 µM | IGROV-1 17.1 µM | K562 8.55 µM | KM12 16.3 µM | LOX IMVI 6.58 µM | M14 20.8 µM | MCF7 17.7 µM | MDA-MB-231 15.4 µM | MDA-MB-435 19.4 µM | MOLT-4 2.55 µM | Malme-3M 14.2 µM | NCI-H226 22.4 µM | NCI-H23 10.6 µM | NCI-H460 20 µM | NCI-H522 19.5 µM | NCI/ADR-RES 12.1 µM | OVCAR-3 15.2 µM | OVCAR-4 10.6 µM | OVCAR-5 17.8 µM | OVCAR-8 16.2 µM | PC-3 16.5 µM | RPMI-8226 6.65 µM | RXF 393 15.3 µM | SF-268 17.9 µM | SF-295 18.8 µM | SF-539 21.2 µM | SK-MEL-28 11.8 µM | SK-MEL-2 19.6 µM | SK-MEL-5 16.4 µM | SK-OV-3 19.7 µM | SN12C 17.4 µM | SNB-19 16.4 µM | SNB-75 14.3 µM | SR 2.52 µM | SW-620 7.33 µM | T47D 4.95 µM | TK-10 17.5 µM | U-251 17.5 µM | UACC-257 15.9 µM | UACC-62 15.8 µM | UO-31 15.2 µM
active: HCC 2998 0.022 µM
13.7 µM: HCT-15

CCCCSc1nsc(N(C(=O)c2ccccc2)C(=O)c2ccccc2)n1
30.3 µM: HCT-15
inactive: 786-0 32 µM | A498 31.5 µM | A549 36.5 µM | ACHN 49.1 µM | BT-549 29.1 µM | CAKI-1 36.5 µM | CCRF-CEM 35.8 µM | COLO 205 20.4 µM | DU-145 33.8 µM | EKVX 27.5 µM | HCC 2998 25.5 µM | HCT-116 28.8 µM | HL-60 28.1 µM | HOP-62 34 µM | HOP-92 26.2 µM | HT-29 29.8 µM | Hs-578T 31.2 µM | IGROV-1 41.1 µM | K562 29.7 µM | KM12 33.5 µM | LOX IMVI 26.9 µM | M14 29 µM | MCF7 32.2 µM | MDA-MB-435 33.7 µM | MDA-N 30.9 µM | MOLT-4 24.2 µM | Malme-3M 26.9 µM | NCI-H226 29.7 µM | NCI-H23 30.1 µM | NCI-H460 27.5 µM | NCI-H522 25.4 µM | NCI/ADR-RES 31.6 µM | OVCAR-3 23.7 µM | OVCAR-4 57.5 µM | OVCAR-5 26.5 µM | OVCAR-8 34.8 µM | PC-3 33.5 µM | RPMI-8226 21.6 µM | RXF 393 32.3 µM | SF-268 35.8 µM | SF-295 32.7 µM | SF-539 25.1 µM | SK-MEL-28 40.2 µM | SK-MEL-2 26.4 µM | SK-MEL-5 18.8 µM | SK-OV-3 31.4 µM | SN12C 29.2 µM | SNB-19 45.5 µM | SNB-75 25.1 µM | SR 21.6 µM | SW-620 41.4 µM | T47D 37.9 µM | TK-10 36.4 µM | U-251 32.4 µM | UACC-257 27.3 µM | UACC-62 23.4 µM | UO-31 19.5 µM

CCc1cccc(C(C)C)c1NC(=O)C(=O)Nn1c(S)nc2ccccc2c1=O
inactive: 786-0 > 100 µM | A498 > 100 µM | A549 > 100 µM | ACHN > 100 µM | BT-549 > 100 µM | CAKI-1 > 100 µM | CCRF-CEM > 100 µM | EKVX 37.8 µM | HCC 2998 > 100 µM | HCT-116 > 100 µM | HOP-62 > 100 µM | HOP-92 > 100 µM | HT-29 > 100 µM | Hs-578T > 100 µM | IGROV-1 59.4 µM | K562 > 100 µM | KM12 > 100 µM | LOX IMVI > 100 µM | M14 > 100 µM | MCF7 > 100 µM | MDA-MB-231 76.2 µM | MDA-MB-435 > 100 µM | MDA-N > 100 µM | MOLT-4 > 100 µM | Malme-3M > 100 µM | NCI-H226 > 100 µM | NCI-H23 > 100 µM | NCI-H460 > 100 µM | NCI-H522 > 100 µM | NCI/ADR-RES 47.8 µM | OVCAR-3 > 100 µM | OVCAR-4 > 100 µM | OVCAR-5 > 100 µM | OVCAR-8 > 100 µM | PC-3 > 100 µM | RPMI-8226 > 100 µM | RXF 393 > 100 µM | SF-268 > 100 µM | SF-295 > 100 µM | SF-539 > 100 µM | SK-MEL-28 > 100 µM | SK-MEL-2 > 100 µM | SK-MEL-5 > 100 µM | SK-OV-3 > 100 µM | SN12C > 100 µM | SNB-75 > 100 µM | SR 77.3 µM | SW-620 > 100 µM | T47D > 100 µM | TK-10 > 100 µM | U-251 > 100 µM | UACC-257 > 100 µM | UACC-62 > 100 µM | UO-31 > 100 µM
> 100 µM: HCT-15

CC(C)c1c(O)c(O)c2c(c1O)C(=O)C(O)=C1C(C)(C)CCC[C@@]12C
inactive: 786-0 3.44 µM | A498 3.84 µM | A549 3.6 µM | ACHN 2.96 µM | BT-549 3.29 µM | CAKI-1 2.61 µM | CCRF-CEM 3.48 µM | COLO 205 1.97 µM | DU-145 4.13 µM | EKVX 2.9 µM | HCC 2998 3.37 µM | HCT-116 3.4 µM | HL-60 2.05 µM | HOP-62 8.61 µM | HOP-92 1.89 µM | HT-29 2.94 µM | Hs-578T 4.31 µM | IGROV-1 3.73 µM | K562 2.77 µM | KM12 3.44 µM | LOX IMVI 4.32 µM | M14 5.47 µM | MCF7 3.13 µM | MDA-MB-231 2.92 µM | MDA-MB-435 2.96 µM | MOLT-4 2.96 µM | Malme-3M 3.88 µM | NCI-H226 3.01 µM | NCI-H23 2.92 µM | NCI-H460 3.19 µM | NCI-H522 3.56 µM | OVCAR-3 3.13 µM | OVCAR-4 3.26 µM | OVCAR-5 5.18 µM | OVCAR-8 2.71 µM | PC-3 2.64 µM | RPMI-8226 1.26 µM | RXF 393 2.86 µM | SF-268 4.76 µM | SF-295 2.96 µM | SF-539 3.59 µM | SK-MEL-28 5.85 µM | SK-MEL-2 3.76 µM | SK-MEL-5 2.6 µM | SK-OV-3 3.81 µM | SN12C 3.23 µM | SNB-19 4.76 µM | SNB-75 3.05 µM | SR 4.05 µM | SW-620 3.29 µM | T47D 3.24 µM | TK-10 3.86 µM | U-251 2.77 µM | UACC-257 2.67 µM | UACC-62 3.86 µM | UO-31 2.32 µM
3.66 µM: HCT-15
